In patent publication US20240189328A1, “COMBINATION OF NOREPINEPHRINE REUPTAKE INHIBITOR AND A C[…] USE IN TREATING SLEEP APNEA” (APNIMED, INC. (DELAWARE), priority 2021, published 2024):

Tested on: participants with moderate to severe OSA
Assay: Open-label 4-period dose-escalation study of dronabinol+atomoxetine, polysomnography (Example 3)
Assay type: in vivo, human
Details: atomoxetine 80 mg alone, week 1 PSG, compared to baseline
Excerpt: This study is designed to assess the safety and efficacy for OSA of three escalating dose combinations of atomoxetine with dronabinol, compared to baseline and to atomoxetine alone.
The present study (SEED) is an open-label, 4 consecutive period dose-escalation study of combinations of atomoxetine and dronabinol in participants with moderate to severe OSA. Participants will undergo initial pre-screening to determine potential study eligibility. […] Only participants who meet all non-PSG enrollment criteria at Visit 1 are eligible for a screening PSG. On a case by case basis and with agreement of the Sponsor a PSG conducted at the site within 3 months may be used instead of the Screening PSG.
Participants who meet all enrollment criteria will receive an escalating dose of atomoxetine the first week: 3 days of atomoxetine 40 mg followed by 4 days of atomoxetine 80 mg. Participants will then receive escalating dose combinations of atomoxetine and dronabinol for the next 3 weeks. The weekly dose schedule is as follows: • Week 1: atomoxetine 40 mg×3 days, then 80 mg×4 days • Week 2: atomoxetine 40 mg/dronabinol 2.5 mg • Week 3: atomoxetine 80 mg/dronabinol 5 mg • Week 4: atomoxetine 80 mg/dronabinol 10 mg […]

CNCCC(Oc1ccccc1C)c1ccccc1 (single isomer, unassigned; (-)) [Ato 80 mg, (−)-N-Methyl-3-phenyl-3-(o-tolyloxy)-propylamine]
Hypoxic burden (HB4): significantly reduced
